Reference: patent publication US6511978B1, “Pyrrole derivatives useful for farnesyl transferase inhibitors and their preparations” (LG Life Sciences, Ltd., priority 1999, dated 2003)

Key:
Ras farnesyl transferase [1] = biological target: T1, Ras farnesyl transferase (Homo sapiens, UniProt P49354+P49356); assay: Ras farnesyl transferase enzyme inhibition, H-Ras substrate; format: biochemical; conditions: H-Ras substrate protein; recombinant farnesyl transferase; 30 minutes at 37° C.
T1 construct: made in house
Source text: (§1) In the present experiment, the improved Pompliano's method (see: Pompliano et al., Biochemistry, 31, 3800, 1992) was applied. Specifically, Ras farnesyl transferase produced by genetic recombination techniques was used, and fused protein of H-Ras(H-Ras-CVLS) substituted with polybasic lysine domain at C-terminus of K-Ras (see: Korean Patent Appln. No. 97-14409) was used as a substrate after it had been purified according to the known method(see, Chung et al., Biochimica et Biophysica Acta, 1129, 278, 1992).
(§2) The enzyme reaction was performed in 50 μl of 50 mM Sodium HEPES buffer solution containing 25 mM of potassium chloride, 25 mM of magnesium chloride, 10 mM of DTT and 50 μM of zinc chloride. 1.5 μM of Ras substrate protein, 0.15 μM of tritium-farnesylpyrophosphate and 4.5 nM of farnesyl transferase were used. More specifically, in the initial step, farnesyl transferase was added to the above buffer solution, reaction was maintained for 30 minutes at 37° C. and then the reaction was stopped by adding 1 ml of ethanol solution containing 1M HCl. The formed precipitates were adsorbed to GF/B filter using Hopper harvestor(Hopper #FH 225V) for filter-binding, washed with ethanol, and then radioactivity of the dried filter was measured using LKB β counter. Enzyme titer was measured in the unsaturated state of substrate where the concentration of Ras substrate protein and farnesyl transferase have quantitative relationship. The compound according to the present invention dissolved in dimethyl sulfoxide(DMSO) was added to the reaction solution in an amount of less than 5% of the total reaction solution, and then the enzyme inhibitory activity thereof was measured. The enzyme inhibitory activity was represented by percentage of the amount of farnesyl incorporated into the Ras substrate protein in the presence of the test compound to that in the absence of the test compound. IC50 of the test compound was defined as the concentration at which 50% of the enzyme activity was inhibited. To evaluate the selective enzyme inhibitory activity of the compound according to the present invention, inhibitory activity on geranylgeranyl transferase was measured. Geranylgeranyl transferase was purified from bovine brain according to the modified Schaber's method(Schaber et al., J. Biol. Chem. 265, 14701, 1990), and substantially the same experimental procedure as that for farnesyl transferase was performed on geranylgeranyl pyrophosphate and Ras-CVIL substrate protein.

Ras farnesyl transferase [2] = biological target: T1, Ras farnesyl transferase; assay: Ras farnesyl transferase enzyme inhibition, K-Ras substrate (H-Ras fused with polybasic lysine domain of K-Ras); format: biochemical; conditions: K-Ras substrate (fused protein of H-Ras with polybasic lysine domain of K-Ras); recombinant farnesyl transferase
Source text: as §1, §2

Ras farnesyl transferase [3] = biological target: T2, Ras farnesyl transferase (Rattus norvegicus, UniProt Q02293+Q04631); assay: In vivo (intracellular) Ras farnesylation inhibition in Rat2 cell line expressing C-Harvey-Ras; format: cell-based; conditions: Rat2 cells expressing C-Harvey-Ras; concentration inhibiting 50% of farnesyl binding; read-out: H-Ras CIC50
T2 construct: endogenous in cells; host or cells: Rat2 fibroblasts transformed with C-Harvey-Ras or with the H-Ras/K-Ras polybasic-domain fusion
Description: (§3) In the present experiment, Rat2 cell line which expresses C-Harvey-Ras protein having transforming activity and Rat2 cell line(Korean patent application No. 97-14409) which is transformed with fused protein of H-Ras substituted with polybasic lysine domain at C-terminus of K-Ras were used. The experiment was performed by the modified Declue's method(Declue. J. E. et al., Cancer Research, 51, 712, 1991) as follows.
(§4) 3×10^5 cells of transformed Rat2 fibroblast cell line were sprayed on 60 mm cell cultivation dish and cultivated for 48 hours in a cell incubator at 37° C. and after 50% or more of density was reached, it was treated with the test compounds. The compound according to the present invention dissolved in dimethylsulfoxide(DMSO) was used. 1% concentration of dimethylsulfoxide was used in both control and test groups. After 4 hours from the treatment with the compound, methionine labeled with 150 μCi of radioactive isotope [^35S] per 1 ml of medium was added and after cultivating for 20 hours, the cells were washed with physiological saline water. The cells were lysed using 1 ml of cold cell lysis buffer solution(50 mM of Sodium HEPES buffer solution containing 5 mM of magnesium chloride, 1 mM of DTT, 1% NP 40, 1 mM of EDTA, 1 mM of PMSF, 2 μM of leupeptin, 2 μM of pepstatin A and 2 μM of antipain) and the supernatant wherein the cells were lysed was obtained by high-velocity centrifugation of 12,000 g×5 minutes. The amount of radioisotope in the supernatant was measured and standardized to obtain a quantitative result in immunoprecipitation reaction and then, Y13-259, a monoclonal antiboby specifically binding to Ras protein(see: Furth, M. E. et al., J. Virol, 43, 294, 1982) was added and reacted for 15 hours at 4° C. Protein A(combined with goat anti-murine immunoglobulin antibody)-agarose suspension was added to the solution and reacted for 1 hour at 4° C. and then, to remove the unspecific binding product, immunoprecipitates were washed with a buffer solution (50 mM Tris chloride buffer solution containing 50 mM of sodium chloride, 0.5% of sodium dioxycholate, 0.5% of NP 40 and 0.1% of SDS). The precipitates were added to a buffer solution for electrophoresis and boiled and then, electrophoresis was performed using 13.5% of SDS polyacrylamide gel. After electrophoresis, the gel was fixed and dried. Then, the gel was exposed to X-ray film, developed and printed. From the result of the experiment, intensities of band of protein combined with or without farnesyl of Ras protein was measured, and the concentration of the test compound inhibiting 50% of farnesyl binding was defined as CIC50, an in vivo Ras farnesyl transferase inhibitory activity. IC50 means the data from Experimental 1 and CIC50 means the data from Experimental 2.

Ras farnesyl transferase [4] = biological target: T2, Ras farnesyl transferase; assay: In vivo (intracellular) Ras farnesylation inhibition in Rat2 cell line transformed with H-Ras fused with polybasic lysine domain of K-Ras; format: cell-based; conditions: Rat2 cells transformed with H-Ras/K-Ras polybasic domain fused protein; concentration inhibiting 50% of farnesyl binding; read-out: K-Ras CIC50
Description: as §3, §4

SMILES	IC50 (Ras farnesyl transferase [1]) [µM]	IC50 (Ras farnesyl transferase [2]) [µM]	IC50 (Ras farnesyl transferase [3]) [µM]	IC50 (Ras farnesyl transferase [4]) [µM]
Cc1ncn(Cc2ccc3c(c2)OCO3)c1Cn1cc(C(=O)N2CCN(C)CC2)c(-c2cccc3ccccc23)c1 [Example 16, 1-[4-methyl-1-(3,4-methylenedioxybenzyl)-1H-imidazol-5-ylmethyl]-3-(4-methylpiperazin-1-yl)carbonyl-4-(naphthalen-1-yl)-1H-pyrrole]	< 0.0015	< 0.0023	> 0.025	> 10
CN1CCN(C(=O)c2cn(Cc3cnc(N)n3Cc3ccc4c(c3)OCO4)cc2-c2cccc3ccccc23)CC1 [Example 17, 1-[2-amino-1-(3,4-methylenedioxybenzyl)-1H-imidazol-5-ylmethyl]-3-(4-methylpiperazin-1-yl)carbonyl-4-(naphthalen-1-yl)-1H-pyrrole]	< 0.0018	< 0.0064	> 0.025	> 10
CSc1ncc(Cn2cc(C(=O)N3CCN(C)CC3)c(-c3cccc4ccccc34)c2)n1Cc1ccc2c(c1)OCO2 [Example 18, 1-[1-(3,4-methylenedioxybenzyl)-2-methylthio-1H-imidazol-5-ylmethyl]-3-(4-methylpiperazin-1-yl)carbonyl-4-(naphthalen-1-yl)-1H-pyrrole]	< 0.0035	< 0.012	> 0.025	> 10
CSc1c(C(=O)N2CCN(C)CC2)c(-c2cccc3ccccc23)cn1Cc1cncn1Cc1ccc2c(c1)OCO2 [Example 19, 1-[1-(3,4-methylenedioxybenzyl)-1H-imidazol-5-ylmethyl]-3-(4-methylpiperazin-1-yl)carbonyl-2-methylthio-4-(naphthalen-1-yl)-1H-pyrrole]	< 0.00095	< 0.002	< 0.0125	> 10
CN1CCN(C(=O)c2cn(Cc3c(I)ncn3Cc3ccc4c(c3)OCO4)cc2-c2cccc3ccccc23)CC1 [Example 20, 1-[4-iodo-1-(3,4-methylenedioxybenzyl)-1H-imidazol-5-ylmethyl]-3-(4-methylpiperazin-1-yl)carbonyl-4-(naphthalen-1-yl)-1H-pyrrole]	< 0.0035	< 0.018	> 0.025	> 10
CN1CCN(C(=O)c2cn(Cc3c([N+](=O)[O-])ncn3Cc3ccc4c(c3)OCO4)cc2-c2cccc3ccccc23)CC1 [Example 21, 1-[1-(3,4-methylenedioxybenzyl)-4-nitro-1H-imidazol-5-ylmethyl]-3-(4-methylpiperazin-1-yl)carbonyl-4-(naphthalen-1-yl)-1H-pyrrole]	> 0.03	> 0.03	> 0.03	> 10
CN1CCN(C(=O)c2cn(Cc3c(N)ncn3Cc3ccc4c(c3)OCO4)cc2-c2cccc3ccccc23)CC1 [Example 22, 1-[4-amino-1-(3,4-methylenedioxybenzyl)-1H-imidazol-5-ylmethyl]-3-(4-methylpiperazin-1-yl)carbonyl-4-(naphthalen-1-yl)-1H-pyrrole]	< 0.0027	< 0.03	> 0.025	> 10
CON1CCN(C(=O)c2cn(Cc3c(C)ncn3Cc3ccc4c(c3)OCO4)cc2-c2cccc3ccccc23)CC1 [Example 23, 3-(4-methoxypiperazin-1-yl)carbonyl-1-[4-methyl-1-(3,4-methylenedioxybenzyl)-1H-imidazol-5-ylmethyl]-4-(naphthalen-1-yl)-1H-pyrrole]	< 0.022	> 0.03	> 0.03	> 10
Cc1c(C(=O)N2CCN(C)CC2)c(-c2cccc3ccccc23)cn1Cc1cncn1Cc1ccc2c(c1)OCO2 [Example 24, 2-methyl-1-[1-(3,4-methylenedioxybenzyl)-1H-imidazol-5-ylmethyl]-3-(4-methylpiperazin-1-yl)carbonyl-4-(naphthalen-1-yl)-1H-pyrrole]	< 0.00445	< 0.007	> 0.025	< 10
CCSc1c(C(=O)N2CCN(C)CC2)c(-c2cccc3ccccc23)cn1Cc1cncn1Cc1ccc2c(c1)OCO2 [Example 25, 2-ethylthio-1-[1-(3,4-methylenedioxybenzyl)-1H-imidazol-5-ylmethyl]-3-(4-methylpiperazin-1-yl)carbonyl-4-(naphthalen-1-yl)-1H-pyrrole]	< 0.002	< 0.006	< 0.01	< 5
COc1ccccc1CCn1c(Cn2cc(C(=O)N3CCN(C)CC3)c(-c3cccc4ccccc34)c2)cnc1C [Example 26, 1-[1-(2-methoxyphenethyl)-2-methyl-1H-imidazol-5-ylmethyl]-3-(4-methylpiperazin-1-yl)carbonyl-4-(naphthalen-1-yl)-1H-pyrrole]	< 0.002	< 0.0065	< 0.025	> 10
CCOCCCn1c(Cn2cc(C(=O)N3CCN(C)CC3)c(-c3cccc4ccccc34)c2)cnc1C [Example 27, 1-[1-(3-ethoxypropyl)-2-methyl-1H-imidazol-5-ylmethyl]-3-(4-methylpiperazin-1-yl)carbonyl-4-(naphthalen-1-yl)-1H-pyrrole]	< 0.003	> 0.02	< 0.025	> 10
CCOCCCn1cnc(C)c1Cn1cc(C(=O)N2CCN(C)CC2)c(-c2cccc3ccccc23)c1 [Example 28, 1-[1-(3-ethoxypropyl)-4-methyl-1H-imidazol-5-ylmethyl]-3-(4-methylpiperazin-1-yl)carbonyl-4-(naphthalen-1-yl)-1H-pyrrole]	< 0.0022	< 0.0032	< 0.00625	< 10
Cc1ncn(CCCOCc2ccccc2)c1Cn1cc(C(=O)N2CCN(C)CC2)c(-c2cccc3ccccc23)c1 [Example 29, 1-[1-(3-benzyloxypropyl)-4-methyl-1H-imidazol-5-ylmethyl]-3-(4-methylpiperazin-1-yl)carbonyl-4-(naphthalen-1-yl)-1H-pyrrole]	< 0.00245	< 0.0027	< 0.00625	< 10
COCCN(C)C(=O)c1cn(Cc2c(C)ncn2CCCOCc2ccccc2)cc1-c1cccc2ccccc12 [Example 30, 1-[1-(3-benzyloxypropyl)-4-methyl-1H-imidazol-5-ylmethyl]-3-[N-(2-methoxyethyl)-N-methyl]carbamoyl-4-(naphthalen-1-yl)-1H-pyrrole]	< 0.005	< 0.0021	< 0.0125	< 10
